Experimental data taken from US11427548B2 (Arvinas Operations, Inc., priority 2015, dated 2022).
Like-named read-outs stand apart in the source and are kept apart here.

Target: T1, Androgen Receptor (Homo sapiens, UniProt P10275)
T1 construct: endogenous in cells; host or cells: VCaP cells
T1 sequence (P10275 1-920): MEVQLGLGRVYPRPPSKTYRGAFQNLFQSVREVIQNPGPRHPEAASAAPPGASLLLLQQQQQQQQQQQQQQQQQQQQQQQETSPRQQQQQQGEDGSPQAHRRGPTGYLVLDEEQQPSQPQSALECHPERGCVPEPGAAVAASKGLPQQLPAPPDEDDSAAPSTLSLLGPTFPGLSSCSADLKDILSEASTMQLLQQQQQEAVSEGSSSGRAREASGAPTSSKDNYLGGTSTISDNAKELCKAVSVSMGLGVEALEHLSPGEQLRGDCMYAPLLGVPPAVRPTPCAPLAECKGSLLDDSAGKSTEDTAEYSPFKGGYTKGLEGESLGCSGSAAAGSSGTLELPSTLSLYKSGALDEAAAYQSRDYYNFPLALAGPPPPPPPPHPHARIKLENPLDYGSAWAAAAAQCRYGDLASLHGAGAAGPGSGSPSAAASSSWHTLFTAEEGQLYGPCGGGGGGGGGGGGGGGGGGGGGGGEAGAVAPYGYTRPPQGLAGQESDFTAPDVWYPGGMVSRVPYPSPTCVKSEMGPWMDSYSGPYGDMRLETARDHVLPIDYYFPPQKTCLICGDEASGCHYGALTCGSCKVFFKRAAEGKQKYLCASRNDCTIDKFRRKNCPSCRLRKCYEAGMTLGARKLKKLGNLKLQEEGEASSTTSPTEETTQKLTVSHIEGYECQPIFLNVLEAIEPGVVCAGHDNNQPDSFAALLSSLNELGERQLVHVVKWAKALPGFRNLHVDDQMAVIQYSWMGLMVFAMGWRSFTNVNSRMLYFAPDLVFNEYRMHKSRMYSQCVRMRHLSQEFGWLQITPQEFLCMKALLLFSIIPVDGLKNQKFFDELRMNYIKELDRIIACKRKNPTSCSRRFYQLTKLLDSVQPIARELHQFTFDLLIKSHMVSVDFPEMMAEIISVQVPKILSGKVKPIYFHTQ
Test: Androgen Receptor ELISA assay (PathScan AR ELISA) in VCaP cells: AR degradation, Dmax and DC50
Format: cell-based
Procedure: 1. Androgen Receptor ELISA Assay.
The protocols used with VCaP cells are described below. The androgen receptor ELISA assay was performed using PathScan AR ELISA (Cell Signaling Catalog #12850) according to the following assay steps:
VCaP cells are seeded at 30,000 cells/well at a volume of 200 μL/well in VCaP assay medium [Phenol red free RPMI (Gibco Cat #11835-030); 5% Charcoal Stripped (Dextran treated) FBS (Omega Scientific, Cat #FB-04); Pen/Strep Life Technologies (Gibco Cat #: 10378-016); 0.1 nM R1881 (Sigma, Cat #R0908) is added upon the start of the assay, not during initial plating of the cells) in Corning 3904 plates. The cells are grown for a minimum of 3 days.
First, cells are dosed with compounds diluted in 0.1% DMSO—use a polypropylene plate according to the following protocol: (1)(i) make 1000× stock plate in DMSO; (ii) 20 mM stock diluted 1/6.7 with DMSO (5 μL+28.3 μL DMSO)=3 mM into row H; (iii) perform serial dilutions in ½ log doses (10 μL of PROTAC+20 μL DMSO) from row H towards row B. Reserve row A for DMSO; (iv) 7 doses total (final concentration in this 1000× plate will be 3 mM, 1 mM, 333 μM, 111 μM, etc). (2)(i) Make 10× stock plate in media; (ii) transfer 2.5 μL of the 1000× stock to a new 10× stock plate (use 12 channel pipet, start at A (DMSO control) work thru H. When 247.5 μL of media is added to this plate, it will serve as a 10× stock; (iii) make media+1 nM R1881 for making 10× stock plate; (iv) add 247.5 μL of media with 1 nM R1881 to each well of the 10× stock plate, mix.
Then 22 μL of 10× stock is added to cells and incubated for 24 h. 1× Cell Signaling Cell lysis buffer is made (Catalogue #9803; comes with the kit)—prepare for 50 μL/well. Keep on ice. Media is aspirated, and 50 μL 1× cell lysis buffer/well is added. The cells are placed on ice for 10 minutes. The solution is mixed and transferred to PCR plate, and centrifuged at 4C for 10 minutes at 4000 rpm.
5 μL is transferred to fresh plate (use immediately or freeze −80 C); 115 μL ELISA Dilutant is added (0.15 ug/ml-0.075 ug/ml; comes with the PathScan ELISA).
Add 100 μL/well AR Elisa; cover and shake, 37 C for 2 hrs; dump, tap, wash 4×200 μL ELISA wash buffer; add 100 μL/well mouse AR detection Ab; cover and shake, 37 C for 1 hr; dump, tap, wash 4×200 μL ELISA wash buffer; add 100 μL/well anti-mouse—HRP conjugated Ab (comes with the kit); cover and shake, 37 C for 30 min; allow TMB reagent to come to room temperature; dump, tap, wash 4×200 μL Elisa wash buffer; tap; add 100 μL TMB, shake 5 min—while watching color. Add the stop reagent when light blue color develops. Add 100 μL Stop solution; shake and read at 450 nm.

[1] = read-out: VCaP DC50; concentration that caused 50% Androgen Receptor degradation, VCaP cells

How did the Dmax (VCaP, read-out: VCaP Dmax (%)) turn out when `Cc1ncsc1-c1ccc(CNC(=O)[C@@H]2C[C@@H](O)CN2C(=O)[C@@H](NC(=O)COCCCCOCCCCOc2ccc(N3C(=S)N(c4ccc(C#N)c(C(F)(F)F)c4)C(=O)C3(C)C)cc2F)C(C)(C)C)cc1` [Example 26, (2S,4R)-1-[(2S)-2-(2-{4-[4-(4-{3-[4-cyano-3-(trifluoromethyl)phenyl]-5,5-dimethyl-4-oxo-2-sulfanylideneimidazolidin-1-yl}-2-fluorophenoxy)butoxy]butoxy}acetamido)-3,3-dimethylbutanoyl]-4-hydroxy-N-{[4-(4-methyl-1,3-thiazol-5-yl)phenyl]methyl}pyrrolidine-2-carboxamide] was run?
Its Dmax is 51 to 70%.

What about the DC50 [1] of the same molecule?
Its DC50 is < 50 nM.

What does the source list for `CC(C)(C)[C@H](NC(=O)COCCCOCCCCOc1ccc(N2C(=S)N(c3ccc(C#N)c(C(F)(F)F)c3)C(=O)C2(C)C)cc1)C(=O)N1C[C@H](O)C[C@H]1C(=O)NCc1ccc(-c2cncs2)cc1` [Example 33, (2S,4R)-1-[(2S)-2-(2-{3-[4-(4-{3-[4-cyano-3-(trifluoromethyl)phenyl]-5,5-dimethyl-4-oxo-2-sulfanylideneimidazolidin-1-yl}phenoxy)butoxy]propoxy}acetamido)-3,3-dimethylbutanoyl]-4-hydroxy-N-{[4-(1,3-thiazol-5-yl)phenyl]methyl}pyrrolidine-2-carboxamide]?
Dmax (VCaP, read-out: VCaP Dmax (%)): 51 to 70%; DC50 [1]: < 50 nM

For `CC(C)(C)[C@H](NC(=O)COCCCOCCCCOc1ccc(N2C(=S)N(c3ccc(C#N)c(C(F)(F)F)c3)C(=O)C2(C)C)cc1)C(=O)N1C[C@H](O)C[C@H]1C(=O)NCc1ccc(-c2cnco2)cc1` [Example 34, (2S,4R)-1-[(2S)-2-(2-{3-[4-(4-{3-[4-cyano-3-(trifluoromethyl)phenyl]-5,5-dimethyl-4-oxo-2-sulfanylideneimidazolidin-1-yl}phenoxy)butoxy]propoxy}acetamido)-3,3-dimethylbutanoyl]-4-hydroxy-N-{[4-(l,3-oxazol-5-yl)phenyl]methyl}pyrrolidine-2-carboxamide], which Dmax (VCaP, read-out: VCaP Dmax (%)) is on record?
Its Dmax is > 71%.

What about the DC50 [1] of the same molecule?
Its DC50 is < 50 nM.

What does the source list for `Cc1ncoc1-c1ccc(CNC(=O)[C@@H]2C[C@@H](O)CN2C(=O)[C@@H](NC(=O)COCCCOCCCCOc2ccc(N3C(=S)N(c4ccc(C#N)c(C(F)(F)F)c4)C(=O)C3(C)C)cc2)C(C)(C)C)cc1` [Example 35, (2S,4R)-1-[(2S)-2-(2-{3-[4-(4-{3-[4-cyano-3-(trifluoromethyl)phenyl]-5,5-dimethyl-4-oxo-2-sulfanylideneimidazolidin-1-yl}phenoxy)butoxy]propoxy}acetamido)-3,3-dimethylbutanoyl]-4-hydroxy-N-{[4-(4-methyl-1,3-oxazol-5-yl)phenyl]methyl}pyrrolidine-2-carboxamide]?
Dmax (VCaP, read-out: VCaP Dmax (%)): 51 to 70%; DC50 [1]: < 50 nM

Which results are given for `CC(C)[C@H](NC(=O)COCCCOCCCCOc1ccc(N2C(=S)N(c3ccc(C#N)c(Cl)c3)C(=O)C2(C)C)cc1)C(=O)N1C[C@H](O)C[C@H]1C(=O)NCc1ccc(-c2cncs2)cc1` [Example 36]?
Dmax (VCaP, read-out: VCaP Dmax (%)): 26 to 50%; DC50 [1]: < 50 nM

`Cc1ncsc1-c1ccc(CNC(=O)[C@@H]2C[C@@H](O)CN2C(=O)[C@@H](NC(=O)COCCCOCCCCOc2ccc(N3C(=S)N(c4cnc(C#N)c(Cl)c4)C(=O)C3(C)C)cc2)C(C)(C)C)cc1` [Example 37, (2S,4R)-1-[(2S)-2-{2-[3-(4-{4-[3-(5-chloro-6-cyanopyridin-3-yl)-5,5-dimethyl-4-oxo-2-sulfanylideneimidazolidin-1-yl]phenoxy}butoxy)propoxy]acetamido}-3,3-dimethylbutanoyl]-4-hydroxy-N-{[4-(4-methyl-1,3-thiazol-5-yl)phenyl]methyl}pyrrolidine-2-carboxamide] was tested. Which Dmax (VCaP, highest percentage of Androgen Receptor degradation observed, VCaP cells; read-out: VCaP Dmax (%)) did it give?
Its Dmax is > 71%.

And the DC50 (concentration that caused 50% Androgen Receptor degradation, VCaP cells; read-out: VCaP DC50)?
The DC50 was < 50 nM.
